Measured values: US9809609B2, “Water-soluble benzoazepine compound and its pharmaceutical composition” (OTSUKA PHARMACEUTICAL CO., LTD., priority 2005, dated 2017)
Converted amounts (≈) assume the structure as drawn. Marks after values point to notes of the source that are not given here.

Key:
[1] = Solubility of salt of compound (1) in water at 37° C.; assay type: physicochemical; details: thermodynamic from solid, shaking at 37° C. for 30 minutes
Method: A suitable amount of test compound is added to a test tube, and 2.5 ml of water is added thereto. After shaking at 37° C. for 30 minutes, the mixture is filtered through a 0.45-μm membrane filter, and 0.5 ml of the filtrate is accurately weighed. Mobile phase is added thereto to make exactly 50 ml, preparing a test solution (dilution ratio: 100-fold). Approximately 5 mg of free-form authentic sample is accurately weighed, and acetonitrile is added thereto to make exactly 50 ml. A 2 ml of this liquid is accurately weighed, and mobile phase is added thereto to make exactly 20 ml, preparing a standard solution (equivalent to 10 μg/ml). By liquid chromatography under the following conditions, 20 μl of both the test solution and standard solution are tested to obtain the peak areas At and As of the test solution and standard solution. Concentration(μg/ml)=Ws/5×10×At/As×100=Ws×At/As×200 Ws: weighed amount of authentic sample (mg) Test Conditions • Detection: ultraviolet absorption photometer • (measurement wavelength: 254 nm) • Column: TOSOH TSKgel ODS-80Ts (0.46 cm×15 cm) • Column temperature: constant temperature of approximately 40° C. • Mobile phase: water/acetonitrile/trifluoroacetic acid=500/500/1 • Flow rate: 1 ml/min

[2] = Serum concentration of tolvaptan in female rats after tail-vein administration of a compound (1b) solution; assay type: in vivo; details: dose producing 1 mg of tolvaptan per kg of body weight
Method: A solution of compound (1b) (equivalent to 1 mg of tolvaptan per ml of solution) was prepared. [table] A 79 mg quantity of sodium dihydrogenphosphate•dihydrate and 5 g of mannitol were dissolved in about 90 ml of water for injection. A sodium hydroxide solution was added thereto, and a solution of pH 7 was prepared. Compound (1b) equivalent to 100 mg of tolvaptan was dissolved in this solution. A sodium hydroxide solution was added thereto, and the pH was adjusted to 7. […] This solution was rapidly administered to female rats via the tail vein at a dose such that 1 mg of tolvaptan is produced per kg of body weight. From time to time, blood was collected from the jugular vein under light ethyl ether anesthesia, and serum concentration of tolvaptan was determined by high-speed liquid chromatography (HPLC).

[3] = Solubility of compound (1b) in buffer solution (room temperature); assay type: physicochemical; details: for Solubility of compound (1b): crystals could not be added in excess; for solubility thermodynamic at 16 days: thermodynamic from solid, shaken 16 days
[4] = Solubility of tolvaptan in Britton-Robinson buffer and purified water; assay type: physicochemical; details: thermodynamic from solid, shaken 4 hours
Method: Tolvaptan was added in excess to Britton-Robinson buffer (pH 2, pH 7, or pH 12) or purified water, and then shaken at 25° C.±1° C. for 4 hours. Each solution was filtered through a filter, and then, using HPLC, the solubility of tolvaptan was quantified by absolute calibration.

`Cc1ccccc1C(=O)Nc1ccc(C(=O)N2CCCC(OP(=O)([O-])[O-])c3cc(Cl)ccc32)c(C)c1.[Mg+2]` (stereo not shown) [Example 7] gave a solubility at 30 min [1] greater than 1000 µg/mL.

For `Cc1ccccc1C(=O)Nc1ccc(C(=O)N2CCCC(OP(=O)([O-])O)c3cc(Cl)ccc32)c(C)c1.[Na+]` (stereo not shown) [Example 8], the solubility at 30 min [1] was greater than 1000 µg/mL.

Work on `Cc1ccccc1C(=O)Nc1ccc(C(=O)N2CCCC(OP(=O)([O-])O)c3cc(Cl)ccc32)c(C)c1.[K+]` (stereo not shown) [Example 11] yielded a solubility at 30 min [1] greater than 1000 µg/mL.

Work on `COP(=O)(NCCO)OC1CCCN(C(=O)c2ccc(NC(=O)c3ccccc3C)cc2C)c2ccc(Cl)cc21` (stereo not shown) [Example 20] yielded a solubility at 30 min [1] greater than 1000 µg/mL.

In the case of `Cc1ccccc1C(=O)Nc1ccc(C(=O)N2CCCC(OP(=O)(O)O)c3cc(Cl)ccc32)c(C)c1` (stereo not shown) [compound (1b)], the “Time at which tolvaptan was initially detected in serum after intravenous administration” value ([2]; rapid tail-vein administration of compound (1b) solution) is reported as “five”, the “Hydrolysis of compound (1b) into tolvaptan in rats” value ([2]; tail-vein administration) is reported as “rapidly hydrolyzed into tolvaptan” and the solubility at 30 min [1] is reported as greater than 1000 µg/mL. For the same compound, the melting point was 150 to 152 °C, the “Solubility of compound (1b)” value ([3]; Citric acid buffer (100 mM), pH before dissolution 8, pH after dissolution 4.2, room temperature) was “at least 8.3* w/v %” and the “Solubility of compound (1b)” value ([3]; Sodium hydrogencarbonate buffer (100 mM), pH before dissolution 8, pH after dissolution 3.1, room temperature) was “at least 7.1* w/v %”. The “Solubility of compound (1b)” value ([3]; Sodium phosphate buffer (100 mM), pH before dissolution 8, pH after dissolution 3.3, room temperature) was “at least 7.1* w/v %”, the “Solubility of compound (1b)” value ([3]; Sodium phosphate buffer (100 mM), pH before dissolution 9, pH after dissolution 3.3, room temperature) was “at least 7.4* w/v %” and the “Solubility of compound (1b)” value ([3]; Sodium phosphate buffer (100 mM), pH before dissolution 10, pH after dissolution 3.4, room temperature) was “at least 6.5* w/v %”. For the same compound, the “Solubility of compound (1b)” value ([3]; Tris buffer (100 mM), pH before dissolution 9, pH after dissolution 3.4, room temperature) was “at least 6.3* w/v %”, the solubility thermodynamic at 16 days ([3]; Tris/HCl buffer, pH 8, aqueous buffer, Tris buffer (100 mM), pH before dissolution 8, pH after dissolution 2.9, room temperature) was 7400 µg/mL (≈ 14 mM) and the solubility thermodynamic at 16 days ([3]; pH 5, aqueous buffer, Sodium phosphate buffer (100 mM), pH before dissolution 5, pH after dissolution 3.0, room temperature) was 5800 µg/mL (≈ 11 mM). It also gave a solubility thermodynamic at 16 days ([3]; pH 6, aqueous buffer, Sodium phosphate buffer (100 mM), pH before dissolution 6, pH after dissolution 3.0, room temperature) of 13100 µg/mL (≈ 24.8 mM) and a solubility thermodynamic at 16 days ([3]; pH 7, aqueous buffer, Sodium phosphate buffer (100 mM), pH before dissolution 7, pH after dissolution 3.1, room temperature) of 7600 µg/mL (≈ 14.4 mM).

Work on `Cc1ccccc1C(=O)Nc1ccc(C(=O)N2CCCC(O)c3cc(Cl)ccc32)c(C)c1` (stereo not shown) [tolvaptan, Tolvaptan] yielded a solubility thermodynamic at 4 h ([4]; aqueous buffer, Britton-Robinson buffer pH 2, 25° C.±1° C.) of 0.2 µg/mL (≈ 0.000445 mM), a solubility thermodynamic at 4 h ([4]; aqueous buffer, Britton-Robinson buffer pH 7, 25° C.±1° C.) of 0.3 µg/mL (≈ 0.000668 mM) and a solubility thermodynamic at 4 h ([4]; aqueous buffer, Britton-Robinson buffer pH 12, 25° C.±1° C.) of 0.2 µg/mL (≈ 0.000445 mM). It also gave a solubility thermodynamic at 4 h ([4]; purified water, 25° C.±1° C.) of 0.2 µg/mL (≈ 0.000445 mM).
